Data: patent US9637470B2, “Treatment for substance use disorders and stress disorders” (Baylor College of Medicine, priority 2013, dated 2017)
“Also recorded” adds a separate entry of the source.

Legend:
[1] = target: recombinant human norepinephrine transporter protein (NET) (Homo sapiens, UniProt P23975); assay: IC50 binding profile, competitive inhibition assay, NET
Experimental: (§1) Amitifadine and DOV 102,677 are enantiomers and differ only in the stereochemistry of the cyclopropyl pyrrolidine carbon to which the dichlorophenyl group is bonded. In addition to the structural differences, the compounds differ greatly in their IC50 binding profiles at the three corresponding monoamine transporter proteins. The IC50 binding profiles were measured for each of the compounds in Table 5 by competitive inhibition assays using recombinant human serotonin transporter protein, recombinant human norepinephrine transporter protein, and recombinant human dopamine transporter protein Compounds were screened at a range of concentrations and were fit to a curve to determine IC50 values, the concentration at which 50% inhibition occurs.

[2] = target: recombinant human dopamine transporter protein (DAT) (Homo sapiens, UniProt Q01959); assay: IC50 binding profile, competitive inhibition assay, DAT
recombinant human dopamine transporter protein (DAT), sequence (Q01959 whole entry): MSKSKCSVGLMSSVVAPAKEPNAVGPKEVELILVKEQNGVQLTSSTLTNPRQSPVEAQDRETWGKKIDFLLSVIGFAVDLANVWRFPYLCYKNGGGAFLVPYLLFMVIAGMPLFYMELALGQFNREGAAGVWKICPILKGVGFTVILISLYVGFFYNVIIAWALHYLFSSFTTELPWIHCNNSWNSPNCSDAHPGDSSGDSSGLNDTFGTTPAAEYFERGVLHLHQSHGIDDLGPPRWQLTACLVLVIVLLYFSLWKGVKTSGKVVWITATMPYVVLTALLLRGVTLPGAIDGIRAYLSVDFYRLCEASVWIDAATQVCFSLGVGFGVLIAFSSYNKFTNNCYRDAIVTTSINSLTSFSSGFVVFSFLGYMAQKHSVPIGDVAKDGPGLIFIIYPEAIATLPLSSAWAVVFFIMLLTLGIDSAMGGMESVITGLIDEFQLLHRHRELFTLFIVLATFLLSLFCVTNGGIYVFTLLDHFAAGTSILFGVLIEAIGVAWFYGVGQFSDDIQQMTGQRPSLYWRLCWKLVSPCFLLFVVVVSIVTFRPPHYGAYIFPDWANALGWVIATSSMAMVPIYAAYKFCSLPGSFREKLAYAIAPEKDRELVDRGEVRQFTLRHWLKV
Experimental: as §1

[3] = target: T1, norepinephrine transporter (Rattus norvegicus, UniProt Q63380); assay: Monoamine uptake into rat synaptosomes, norepinephrine; format: biochemical
T1 construct: from tissue; host or cells: rat synaptosomes
T1 sequence (Q63380 1-617): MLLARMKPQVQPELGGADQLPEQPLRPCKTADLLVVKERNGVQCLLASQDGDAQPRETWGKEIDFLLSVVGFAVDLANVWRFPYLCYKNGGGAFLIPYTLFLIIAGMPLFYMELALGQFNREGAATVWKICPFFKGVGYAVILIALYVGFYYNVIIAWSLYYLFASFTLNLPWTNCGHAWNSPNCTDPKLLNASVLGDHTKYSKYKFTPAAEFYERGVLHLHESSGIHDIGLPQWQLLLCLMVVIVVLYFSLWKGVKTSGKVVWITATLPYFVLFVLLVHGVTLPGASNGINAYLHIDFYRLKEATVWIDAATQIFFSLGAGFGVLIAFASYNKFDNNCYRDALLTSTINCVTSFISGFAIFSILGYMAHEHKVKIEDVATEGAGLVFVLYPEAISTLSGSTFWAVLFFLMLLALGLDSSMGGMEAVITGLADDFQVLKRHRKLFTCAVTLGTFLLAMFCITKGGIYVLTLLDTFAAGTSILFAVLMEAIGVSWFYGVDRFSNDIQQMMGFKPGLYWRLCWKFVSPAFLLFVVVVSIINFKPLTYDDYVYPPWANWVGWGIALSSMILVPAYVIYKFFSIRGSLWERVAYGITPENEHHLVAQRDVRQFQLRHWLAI

[4] = target: σ1 (Homo sapiens, UniProt Q99720); assay: Receptor binding studies, sigma σ1; settings: at 10 uM
σ1, sequence (Q99720 whole entry): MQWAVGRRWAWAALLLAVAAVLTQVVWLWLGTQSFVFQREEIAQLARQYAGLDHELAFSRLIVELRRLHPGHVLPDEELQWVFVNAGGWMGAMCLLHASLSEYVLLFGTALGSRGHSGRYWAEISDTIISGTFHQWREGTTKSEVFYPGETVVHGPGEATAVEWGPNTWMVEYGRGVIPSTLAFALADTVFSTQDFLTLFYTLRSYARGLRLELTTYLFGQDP
Source text: (§2) Binding at σ1 is not problematic, as SSRIs are known to have similar activities.

[5] = target: 5-HT2B (Homo sapiens, UniProt P41595); assay: Receptor binding studies, 5-HT2B; settings: at 10 uM
5-HT2B, sequence (P41595 whole entry, species assumed): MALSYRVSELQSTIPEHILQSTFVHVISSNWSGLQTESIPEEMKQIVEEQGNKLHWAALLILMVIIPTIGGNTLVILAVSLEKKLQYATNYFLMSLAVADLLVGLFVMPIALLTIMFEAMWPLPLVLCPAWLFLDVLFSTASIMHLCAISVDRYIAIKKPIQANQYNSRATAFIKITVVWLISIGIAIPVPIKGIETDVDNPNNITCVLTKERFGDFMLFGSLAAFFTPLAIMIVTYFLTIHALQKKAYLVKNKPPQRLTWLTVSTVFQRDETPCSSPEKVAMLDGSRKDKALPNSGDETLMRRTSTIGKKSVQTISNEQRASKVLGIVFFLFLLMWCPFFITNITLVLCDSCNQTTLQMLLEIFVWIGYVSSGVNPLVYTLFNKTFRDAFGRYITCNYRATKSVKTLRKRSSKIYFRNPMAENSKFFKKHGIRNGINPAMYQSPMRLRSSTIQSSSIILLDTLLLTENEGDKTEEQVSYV
Source text: as §2

[6] = tested on: 56 receptors, channels, and transporters; assay: Receptor binding studies, panel of 56 receptors, channels, and transporters; settings: 10 μM; all sites except σ1 and 5-HT2B
Source text: as §2

[7] = Metabolic stability in hepatocytes; format: in vitro ADME, human
[8] = PK parameters in mouse; settings: in vivo
[9] = PK, distribution and excretion in rat; format: in vivo; settings: for half-life: in vivo
[10] = PK parameters in dog; settings: in vivo
[11] = target: CYP450 2C19 (Homo sapiens, UniProt P33261); assay: CYP450 inhibition, 2C19; format: in vitro ADME
CYP450 2C19, sequence (P33261 whole entry): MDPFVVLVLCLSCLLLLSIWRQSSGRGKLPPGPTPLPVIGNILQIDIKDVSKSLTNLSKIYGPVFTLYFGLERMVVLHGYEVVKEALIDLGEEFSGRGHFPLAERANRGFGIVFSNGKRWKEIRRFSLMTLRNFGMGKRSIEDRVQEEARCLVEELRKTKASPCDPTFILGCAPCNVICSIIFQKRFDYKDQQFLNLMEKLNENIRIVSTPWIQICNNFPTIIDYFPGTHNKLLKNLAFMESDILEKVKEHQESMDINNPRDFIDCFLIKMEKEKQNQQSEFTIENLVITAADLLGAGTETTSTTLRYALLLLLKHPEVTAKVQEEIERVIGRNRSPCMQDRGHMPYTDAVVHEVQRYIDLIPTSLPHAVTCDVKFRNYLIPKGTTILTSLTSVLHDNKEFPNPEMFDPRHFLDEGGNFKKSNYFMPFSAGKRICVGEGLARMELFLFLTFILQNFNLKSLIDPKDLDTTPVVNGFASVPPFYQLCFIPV

[12] = target: CYP450 3A4 (Homo sapiens, UniProt P08684); assay: CYP450 inhibition, 3A4; format: in vitro ADME
CYP450 3A4, sequence (P08684 whole entry): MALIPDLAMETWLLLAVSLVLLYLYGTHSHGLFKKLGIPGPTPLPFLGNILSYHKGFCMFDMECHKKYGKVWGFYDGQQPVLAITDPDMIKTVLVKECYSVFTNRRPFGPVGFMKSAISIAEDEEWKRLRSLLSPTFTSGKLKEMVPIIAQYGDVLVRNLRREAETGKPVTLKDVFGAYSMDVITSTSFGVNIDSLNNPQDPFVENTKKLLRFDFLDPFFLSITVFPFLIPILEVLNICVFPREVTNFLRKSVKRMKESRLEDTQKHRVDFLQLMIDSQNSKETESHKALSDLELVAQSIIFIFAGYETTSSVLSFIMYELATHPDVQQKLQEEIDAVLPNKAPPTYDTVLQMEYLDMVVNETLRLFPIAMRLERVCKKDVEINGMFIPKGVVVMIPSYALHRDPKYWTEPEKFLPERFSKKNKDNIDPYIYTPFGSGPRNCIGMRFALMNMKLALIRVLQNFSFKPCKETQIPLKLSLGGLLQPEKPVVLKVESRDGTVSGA

[13] = target: hERG channel (Homo sapiens, UniProt Q12809); assay: hERG channel inhibition; settings: accompanied by offsetting inhibition of other ion channels
hERG channel, sequence (Q12809 whole entry): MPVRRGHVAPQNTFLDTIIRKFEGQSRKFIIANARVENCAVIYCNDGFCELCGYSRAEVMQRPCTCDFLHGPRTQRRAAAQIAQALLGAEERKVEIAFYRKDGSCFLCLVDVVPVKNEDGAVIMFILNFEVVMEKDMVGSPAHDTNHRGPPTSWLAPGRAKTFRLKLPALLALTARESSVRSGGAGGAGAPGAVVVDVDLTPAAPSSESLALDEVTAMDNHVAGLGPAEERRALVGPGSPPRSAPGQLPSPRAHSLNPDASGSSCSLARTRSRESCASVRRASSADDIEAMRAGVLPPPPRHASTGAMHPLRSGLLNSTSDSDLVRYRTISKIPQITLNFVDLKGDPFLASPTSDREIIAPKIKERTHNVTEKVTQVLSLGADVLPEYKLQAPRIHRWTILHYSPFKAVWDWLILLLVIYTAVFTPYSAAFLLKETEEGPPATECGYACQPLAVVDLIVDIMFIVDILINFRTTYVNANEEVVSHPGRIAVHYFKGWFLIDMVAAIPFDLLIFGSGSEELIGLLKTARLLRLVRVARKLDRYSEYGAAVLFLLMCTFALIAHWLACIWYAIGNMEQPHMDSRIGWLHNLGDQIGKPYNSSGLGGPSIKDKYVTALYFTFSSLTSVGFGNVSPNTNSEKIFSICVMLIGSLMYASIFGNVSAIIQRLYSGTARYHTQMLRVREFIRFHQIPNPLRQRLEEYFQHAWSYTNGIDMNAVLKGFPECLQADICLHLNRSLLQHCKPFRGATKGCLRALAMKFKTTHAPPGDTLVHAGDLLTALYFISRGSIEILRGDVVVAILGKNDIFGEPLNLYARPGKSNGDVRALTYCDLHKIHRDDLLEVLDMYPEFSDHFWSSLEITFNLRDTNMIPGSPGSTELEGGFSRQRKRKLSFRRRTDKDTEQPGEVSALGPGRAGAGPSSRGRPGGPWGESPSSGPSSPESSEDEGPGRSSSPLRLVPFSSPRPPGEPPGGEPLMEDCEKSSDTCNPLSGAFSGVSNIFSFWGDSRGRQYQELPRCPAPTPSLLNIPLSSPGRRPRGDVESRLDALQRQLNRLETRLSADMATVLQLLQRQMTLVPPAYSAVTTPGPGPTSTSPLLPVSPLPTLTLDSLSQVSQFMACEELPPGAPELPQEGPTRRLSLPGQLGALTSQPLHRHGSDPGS

[14] = Chronic (13 week) toxicity testing in rats; settings: rat, in vivo, read-out: no adverse effects level (NOAEL)
[15] = tested on: healthy volunteers; assay: Single ascending dose study in healthy volunteers; format: in vivo, human
Experimental: A single ascending dose, double-blind, placebo controlled study enrolled 50 participants divided into 10 per dosing group. In each group of 10 volunteers, 7 received active medication and 3 received placebo. The doses tested were 10, 25, 75, 150, and 300 mg. […] Across most doses, the elimination half-life was […].

[16] = tested on: Sprague-Dawley rats; assay: Methamphetamine-induced locomotor activation in rats; format: in vivo, rat; settings: for locomotor activity, EC2 alone versus saline: 30.0 mg/kg IP; for METH-induced locomotor activation: EC2 30.0 mg/kg IP + METH 1 mg/kg
Source text: Adult male Sprague-Dawley rats (n=5-6/group, Harlan Sprague-Dawley Inc., Indianapolis, Ind., USA) were used in this study. Rats were housed three per cage in polypropylene cages in a temperature- and humidity-controlled room maintained on a 12:12 light/dark cycle (lights on at 7:00). Food and water were available ad libitum. Protocols were approved by the Baylor College of Medicine Institutional Animal Care and Use Committee and followed the “Principles of Laboratory Animal Care” (NIH publication No. 85-23, revised 1996). Facilities were accredited by the American Association of Laboratory Animal Care.
The TruScan photobeam activity system (Coulbourn Instruments, Allentown, Pa., USA) was used to measure horizontal and vertical distance traveled in centimeters (cm). This system includes a clear arena (16″L×16″W×15.5″D) that had two sets of infrared sensors with one located at floor level and the other 2.5″ above floor level. Data from beam breaks were tabulated and analyzed by a PC computer and using a Coulbourn Instruments software system (TruScan 2.03).
Drug solutions were prepared fresh daily. To test the effects of EC2 on METH locomotor activation, groups of rats were administered vehicle (saline), METH (1 mg/kg), EC2 (30.0 mg/kg) and EC2+METH. Pretreatment time was 30 min for EC2.
Testing began on the next day (day 1) and continued for the next five days. Rats were administered drugs according to group and immediately placed in the activity chambers for 60 min.
Data were first assessed with normality (Shapiro-Wilk) and equal variance tests. Distance traveled (cm), which reflects ambulatory activity, and vertical distance (cm) were the primary dependent variables analyzed. Habituation locomotor activity (baseline habituation, HAB) was assessed using a One-Way ANOVA with treatment as the main factor, and Student-Newman-Keuls Method was used for post-hoc comparisons. […] Dunn's method was used for post-hoc multiple comparisons between groups. Data are presented as mean±SEM and significant p values set at <0.05.
The preceding example was continued for 5 days. Data from day 5 passed normality and equal variance tests and were analyzed with One-Way ANOVA with treatment as the main factor. Post-hoc pairwise multiple comparison procedures were performed using Student-Newman Keuls Method was used to determine group differences. Data are presented as mean±SEM and significant p values set at <0.05.

[17] = tested on: dogs; assay: Telemetry studies in dogs (ECG, QT); settings: doses up to 20 mg/kg
[18] = tested on: rats; assay: Self-administration in rats (abuse potential); settings: doses up to 10 mg/kg/infusion, cocaine positive control
[19] = tested on: locomotor activity; assay: Locomotor activity, screening test for stimulant-like effects; settings: in vivo

recombinant human norepinephrine transporter protein (NET), sequence (P23975 whole entry): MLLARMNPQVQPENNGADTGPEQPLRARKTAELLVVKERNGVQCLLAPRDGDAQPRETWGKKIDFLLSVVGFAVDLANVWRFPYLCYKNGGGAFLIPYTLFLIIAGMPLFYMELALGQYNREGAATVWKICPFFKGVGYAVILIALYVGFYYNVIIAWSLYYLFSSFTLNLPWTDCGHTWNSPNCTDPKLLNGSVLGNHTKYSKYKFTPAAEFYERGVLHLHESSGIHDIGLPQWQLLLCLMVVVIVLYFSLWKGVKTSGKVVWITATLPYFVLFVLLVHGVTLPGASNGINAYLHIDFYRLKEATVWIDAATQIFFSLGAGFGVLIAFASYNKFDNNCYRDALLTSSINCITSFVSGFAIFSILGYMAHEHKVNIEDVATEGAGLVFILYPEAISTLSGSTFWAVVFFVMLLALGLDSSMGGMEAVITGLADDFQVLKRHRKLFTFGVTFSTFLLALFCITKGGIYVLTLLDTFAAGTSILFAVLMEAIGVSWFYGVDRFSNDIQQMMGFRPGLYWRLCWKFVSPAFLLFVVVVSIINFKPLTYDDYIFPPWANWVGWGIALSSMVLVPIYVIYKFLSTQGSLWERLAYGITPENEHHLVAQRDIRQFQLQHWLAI

**Q.** Which results are given for `c1ccc2cc([C@H]([C@H]3CCCNC3)n3ncnn3)ccc2c1` [Example Compound 2, (3S)-3-[(S)-naphthalen-2-yl(2H-tetrazol-2-yl)methyl]piperidine]?
**A.** IC50 [1]: 10 nM; IC50 [2]: 11 nM; IC50 [3]: 65 nM; inhibition of binding at σ1 [4]: 74 % inhibition; inhibition of binding at 5-HT2B [5]: 56 % inhibition; binding at the other sites of the panel [6]: no significant binding; metabolic stability [7]: high; half-life [8]: 1.9 h; Kp ([9]; brain, rat, after oral dosing, read-out: AUC ratio (brain/plasma)): 0.45; accumulation in tissue ([9]; rat, after oral administration): does not accumulate; also recorded: without significant accumulation; tissue distribution ([9]; rat, after oral administration): widely distributed across most tissues; half-life ([9]; rat, T1/2): 3.7 h; half-life ([9]; rat, po, elimination half-life in brain): 12.6 h; half-life ([9]; rat, po, elimination half-life in plasma): 5 h; route of excretion ([9]; rodents): mainly excreted in feces; half-life [10]: 2 h; bioavailability ([10]; po, dogs): 45%; inhibition of CYP450 2C19 [11]: does not inhibit; inhibition of CYP450 3A4 [12]: does not inhibit; hERG channel inhibition [13]: moderate; NOAEL at 13 week [14]: 60 mg/kg; plasma concentration versus dose ([15]; single dose 10, 25, 75, 150, and 300 mg): proportional to dose; primary adverse effects ([15]; single dose, increasing in prevalence at 75 mg and higher): nausea, dizziness, and headache; safety ([15]; single doses up to 300 mg): safe; locomotor activity, EC2 alone versus saline ([16]; day 5, both activity measures): did not differ from saline; locomotor activity, EC2 alone versus saline ([16]; over 5 days, both activity measures): did not differ from saline; METH-induced locomotor activation ([16]; day 5, more apparent on vertical distance): significantly attenuated; METH-induced locomotor activation ([16]; over 5 days, more apparent on vertical distance): significantly attenuated; effects on ECG or QT [17]: no effects; self-administration [18]: not self-administered; increases in locomotor activity [19]: does not cause increases
